Laboratory results taken from US20240167075A1, “METHODS FOR ASSAYING ENZYME ACTIVITY” (Regeneron Pharmaceuticals, Inc., priority 2022, published 2024).
“Also recorded” adds a separate entry of the source.

B1: β4GALT1 with N352S mutation: missense variant (rs551564683, p.Asn352Ser) in β4GALT1 (protein, UniProt P15291 1-398, looked up, variant N352S)
chain: MRLREPLLSGSAAMPGASLQRACRLLVAVCALHLGVTLVYYLAGRDLSRLPQLVGVSTPLQGGSNSAAAIGQSSGELRTGGARPPPPLGASSQPRPGGDSSPVVDSGPGPASNLTSVPVPHTTALSLPACPEESPLLVGPMLIEFNMPVDLELVAKQNPNVKMGGRYAPRDCVSPHKVAIIIPFRNRQEHLKYWLYYLHPVLQRQQLDYGIYVINQAGDTIFNRAKLLNVGFQEALKDYDYTCFVFSDVDLIPMNDHNAYRCFSQPRHISVAMDKFGFSLPYVQYFGGVSALSKQQFLTINGFPNNYWGWGGEDDDIFNRLVFRGMSISRPNAVVGRCRMIRHSRDKKNEPSPQRFDRIAHTKETMLSDGLNSLTYQVLDVQRYPLYTQITVDIGTPS

Key:
Format in all cases: biochemical
[1] = tested on: β4GALT1; test: commercial Phosphate Glycosyltransferase Activity kit (R&D Systems), malachite green phosphate detection; details: UDP-Gal glycosyl donor, coupling phosphatase; FIG. 4
Source text: The commercial Phosphate Glycosyltransferase Activity kit was purchased from R&D Systems. The principle of the assay along with the materials provided were utilized according to manufacturer's conditions. In brief, a diphosphonucleotide sugar (such as UDP-Gal) is used as a glycosyl donor and mixed with a glycosyl acceptor, a phosphatase, and a glycosyltransferase. Glycosyltransferase activity exposes a phosphate of the glycosyl donor to phosphatase activity, releasing free phosphate. The amount of phosphate present should be directly proportional to the amount of formed glycosylated product. The kit also uses a specific phosphatase to remove an inorganic phosphate quantitatively from UDP. The released inorganic phosphate is subsequently quantitated by sensitive colorimetric malachite green phosphate detecting reagents. The amount of inorganic phosphate released by the coupling phosphatase should be equal to the nucleotide sugar consumed or glycoconjugate product generated. Therefore, the rate of inorganic phosphate products should reflect the kinetics of a glycosyltransferase reaction (specific activity of the enzyme). The steps as performed are outlined in FIG. 3.
To estimate the amount of UDP produced in the enzymatic reaction, a phosphate standard curve was established according to manufacturer's conditions. […]

[2] = tested on: β4GALT1; test: HILIC-UV/MS based assay of β4GALT1 activity (method of Montasser et al.)
Source text: Montasser et al. attempted to assay enzyme activity using a method involving quantification of the β4GALT1 substrate UDP-Gal, by measuring its peak area using hydrophilic interaction chromatography-ultraviolet detection-mass spectroscopy. The method as outlined in Montasser et al. was followed, using HILIC-UV-MS to quantitate the decrease of UDP-Gal as a measure of β4GALT1 activity. In particular, the decrease of UDP-Gal could be measured using UV detection and the corresponding increase of GlcNAc-Gal could be measured using MS.
The glycosyl donor was 1.7 nmol UDP-Gal; the glycosyltransferase was 1.1 pmol β4GALT1; and the glycosyl acceptor was 500 nmol GlcNAc. All samples were analyzed using an Acquity UPLC I-Class coupled with Vion IMS Q-Tof (Waters, Milford, MA, USA). A Waters Acquity UPLC Glycoprotein BEH Amide chromatographic column (300 Å, 150 mm×2.1 mm, 1.7 μm) was used to separate the analytes with a column temperature of 45° C. and a flow rate of 0.2 mL/minute. Mobile phase A was 50 mM ammonium acetate at a pH 7.5, and mobile phase B was 5% (v/v) 25 mM ammonium acetate at a pH 7.5 in acetonitrile. A 1 μL aliquot of each mixture (wildtype and mutant β4GALT1) was injected for analysis.
The difference in activity between the wildtype and mutant β4GALT1 was tested using paired two-sided Student's t-test.

[3] = tested on: β4GALT1; test: HILIC-FLR-MS based assay of β4GALT1 activity with 2-AB-G0F labeling substrate; details: 1.1 pmol B4GALT1, 1.7 nmol UDP-Gal, 10 pmol 2-AB-G0F, room temperature, 0 to 60 minutes; FIG. 8, 12, 13
Experimental: Specifically, the enzymatic activities were measured using uridine diphosphate galactose (UDP-Gal) as a donor substrate and a labeled glycan (2-AB-G0F) as the labeling substrate. The experiment was carried out over eight different time points.
The enzymatic reaction was initiated by adding 1.1 pmol of B4GALT1 into a mixture of 1.7 nmol UDP-Gal (the glycosyl donor) and 10 pmol of 2-AB-G0F (the glycosyl acceptor), and the mixture was incubated at room temperature for 2, 5, 10, 15, 25, 40, and 60 minutes. The sample representing the initial time point (0 min) was prepared by omitting the enzyme. This HILIC-FLR-MS based method was used to quantitate both the decrease of UDP-Gal and the increase in formation of the products (G1F/G2F).
All samples were analyzed using an Acquity UPLC I-Class coupled with Vion IMS Q-Tof (Waters, Milford, MA, USA). A Waters Acquity UPLC Glycoprotein BEH Amide chromatographic column (300 Å, 150 mm×2.1 mm, 1.7 μm) was used to separate the analytes with a column temperature of 60° C. and a flow rate of 0.5 mL/minute. Mobile phase A was 50 mM ammonium acetate at a pH 4.4, and mobile phase B was acetonitrile. A 5 μL aliquot of each mixture was injected onto the column for HILIC-MS analysis. The sample run time was 12 minutes.
The samples were monitored using a UV detector at a wavelength of 280 nm and fluorescence with excitation at a wavelength of 330 nm and emission at a wavelength of 420 nm. The Waters Vion IMS Q-Tof mass spectrometer was operated in positive mode and the mass spectra were acquired with a m/z range between 600 and 2000. UDP-Gal was quantitated and the data were collected and processed using UNIFI software (Waters).

| Molecule | specific activity (enzyme activity) determined using a commercial kit [1] | decrease in UDP-Gal (UV peak area) ([2]; 1.7 nmol UDP-Gal, 1.1 pmol β4GALT1, 500 nmol GlcNAc, 2, 5, 10, 15, 25, 40, and 60 minutes, FIG. 5) | increase in the amounts of the product (GlcNAc-Gal) over time, MS ([2]; 2, 5, 10, 15, 25, 40, and 60 minutes, FIG. 6) | activity suggested by decrease in UDP-Gal ([2]; wildtype compared to mutant, FIG. 5) | fluorescent signal for 2-AB-G0F (labeling substrate) over time [3] | signal for the products 2-AB-G1F and 2-AB-G2F over time [3] |
| --- | --- | --- | --- | --- | --- | --- |
| Beta-1,4-galactosyltransferase 1 [wildtype β4GALT1] | less active than β4GALT1 with N352S mutation | significantly more | significantly more | higher activity | reduction in the signal; also recorded: declines substantially over time | increase substantially over time |
| B1 |  |  |  |  | less so | less so |
